Results reported in patent US6585967B2, “Adhesive treatment for tinea cruris” (Closure Medical Corporation, priority 2001, dated 2003).

Assay: Observation of haloprogin / 2-octyl cyanoacrylate monomer composition after preparation
Type: physicochemical
Protocol: A 2-octyl cyanoacrylate monomer composition is prepared by adding 30 mg of haloprogin, an anti-fungal agent, to 2 mL of 2-octyl cyanoacrylate monomer. The mixture is sealed in a glass vial and stirred. The characteristics of the composition are observed at about one minute after preparation and later at least twenty-four hours after preparation.

- premature polymerization of the monomer (stability) (30 mg haloprogin in 2 mL 2-octyl cyanoacrylate monomer, at least twenty-four hours after preparation): does not cause premature polymerization
- solubility of haloprogin in the monomer (30 mg in 2 mL 2-octyl cyanoacrylate monomer, about one minute and at least twenty-four hours after preparation): soluble in the monomer
Structure (SMILES): Clc1cc(Cl)c(OCC#CI)cc1Cl [haloprogin]
